Experimental data taken from the C3SDB collision cross section collection.

Conditions: instrument: TW, calibrated with polyalanine and drug standards

SMILES	collision cross section (N2) ([M+H]+) [Å²]	other results
CCN1CCCC1CNC(=O)c1cc(S(N)(=O)=O)ccc1OC (centres undefined) [SULPIRIDE]	183.3	
C=CC[C@@H]1/C=C(\C)C[C@H](C)C[C@H](OC)[C@H]2O[C@@](O)(C(=O)C(=O)N3CCCC[C@H]3C(=O)O[C@H](/C(C)=C/[C@@H]3CC[C@@H](O)[C@H](OC)C3)[C@H](C)[C@@H](O)CC1=O)[C@H](C)C[C@@H]2OC [TACROLIMUS]		collision cross section (N2) ([M+Na]+): 267 Å²
CN1C(C(=O)Nc2ccccn2)=C(O)c2sccc2S1(=O)=O [TENOXICAM]	169.8	
C[C@]12CC[C@H]3[C@@H](CCC4=CC(=O)CC[C@@]43C)[C@@H]1CC[C@@H]2O [TESTOSTERONE]	170.6	
COc1ccc2c(c1)OC[C@@H](Cc1ccc(OC)c(OC)c1)[C@H]2O [TETRAHYDROSAPPANONE A TRIMETHYL ETHER]		collision cross section (N2) ([M+H-H2O]+): 172 Å²
c1ccc(C2CN3CCSC3=N2)cc1 (centres undefined) [TETRAMIZOLE]	144	
CN1CCN(CC/C=C2/c3ccccc3Sc3ccc(S(=O)(=O)N(C)C)cc32)CC1 [THIOTHIXENE]	201.9	
CCN(CC)CCOc1ccc2c(c1)C(=O)c1cc(OCCN(CC)CC)ccc1-2 [TILORONE]	219.8	
Cc1ccc(S(=O)(=O)NC(=O)NN2CCCCCC2)cc1 [TOLAZAMIDE]	173.3	
CC(=O)Oc1ccc(/C=C/c2cc(OC(C)=O)cc(OC(C)=O)c2)cc1 [TRIACETYLRESVERATROL]	171.1	
CC1(C)O[C@@H]2C[C@H]3[C@@H]4CCC5=CC(=O)C=C[C@]5(C)[C@@]4(F)[C@@H](O)C[C@]3(C)[C@]2(C(=O)CO)O1 [TRIAMCINOLONE ACETONIDE]	197.1	
CC1(C)C2C[C@@H](O)[C@]3(C)C(CC[C@@]4(C)[C@H](c5ccoc5)OC(=O)[C@H]5O[C@]543)[C@@]2(C)[C@@H](O)C[C@H]1O (some centres undefined) [TRIDESACETOXYKHIVORIN]	201.5	
C[C@H](CCC(=O)O)[C@H]1CC[C@H]2[C@@H]3CC[C@@H]4CCCC[C@]4(C)[C@H]3CC[C@]12C [URSOCHOLANIC ACID]	169.3	
CCC(C)C(=O)O[C@@H]1C[C@@]2(C)[C@H](c3ccoc3)OC(=O)CC23OC2(C)O[C@]14[C@]1(C)[C@@H](CC(=O)OC)C5(C)CC1(O)[C@](O)(C5OC(=O)C1(C)OC1C)[C@@H](OC(C)=O)[C@]34O2 (some centres undefined) [UTILIN]	252.5	
Cc1cccc(C)c1NC1=NCCCS1 [XYLAZINE]	147.8	
COc1cc([C@@H]2c3cc4c(c(O)c3C[C@H]3COC(=O)[C@@H]32)OCO4)cc(OC)c1OC [beta-PELTATIN]		collision cross section (N2) ([M+H-H2O]+): 189 Å²

Second part, led by results:

collision cross section (N2) ([M+H]+) [Å²]	SMILES	other results
188.7	CN1CC(=O)N2[C@H](c3ccc4c(c3)OCO4)c3[nH]c4ccccc4c3C[C@@H]2C1=O [TADALAFIL]	
182	COc1ccc(-c2cc(=O)c3c(OC)c(OC)c(OC)c(OC)c3o2)cc1 [TANGERITIN]	
180.7	Clc1ccc(C(Cn2ccnc2)OCc2ccsc2Cl)c(Cl)c1 (centres undefined) [TIOCONAZOLE]	
161.9	CCCCNC(=O)NS(=O)(=O)c1ccc(C)cc1 [TOLBUTAMIDE]	
155.4	Nc1nc(N)c2nc(-c3ccccc3)c(N)nc2n1 [TRIAMTERENE]	
171.2	COc1cc(Cc2cnc(N)nc2N)cc(OC)c1OC [TRIMETHOPRIM]	
139.1	COc1c2ccoc2cc2oc(C)cc(=O)c12 [VISNAGIN]	
148.3	CC1(C)C=Cc2cc3ccc(=O)oc3cc2O1 [XANTHYLETIN]	
